From ChEMBL document CHEMBL1143809, “New bis-N9-(methylphenylmethyl)purine derivatives: synthesis and antitumor activity” (2007)

Key:
Assay type in all cases: functional
[1] = test system: NCI-H460; experiment: Anticancer activity against human NCL-H460 cells assessed as growth at 100 uM after 48 hrs by SRB protein assay relative to control; conditions: NCI-H460, 48 h, read-out: Activity
[2] = test system: MCF7; experiment: Anticancer activity against human MCF7 cells assessed as growth at 100 uM after 48 hrs by SRB protein assay relative to control; conditions: MCF7, 48 h, read-out: Activity
[3] = test system: SF-268; experiment: Anticancer activity against human SF268 cells assessed as growth at 100 uM after 48 hrs by SRB protein assay relative to control; conditions: SF-268, 48 h, read-out: Activity

| Compound | growth at 100 µM [1] [%] | growth at 100 µM [2] [%] | growth at 100 µM [3] [%] |
| --- | --- | --- | --- |
| Clc1ncnc2c1ncn2Cc1ccccc1Cn1cnc2c(Cl)ncnc21 | 58 | 78 | 78 |
| Nc1ncnc2c1ncn2Cc1cccc(Cn2cnc3c(N)ncnc32)c1 | 96 | 109 | 108 |
| Clc1ncnc2c1ncn2Cc1ccc(Cn2cnc3c(Cl)ncnc32)cc1 | 95 | 101 | 86 |
| Nc1ncnc2c1ncn2Cc1ccc(-c2ccc(Cn3cnc4c(N)ncnc43)cc2)cc1 | 98 | 86 | 50 |
| Clc1ncnc2c1ncn2Cc1ccc(-c2ccc(Cn3cnc4c(Cl)ncnc43)cc2)cc1 | 45 | 67 | 95 |
| Nc1ncnc2c1ncn2Cc1ccccc1Cn1cnc2c(N)ncnc21 | 84 | 99 | 99 |
| Nc1ncnc2c1ncn2Cc1ccc(Cn2cnc3c(N)ncnc32)cc1 | 111 | 112 | 96 |
| Clc1ncnc2c1ncn2Cc1cccc(Cn2cnc3c(Cl)ncnc32)c1 | 65 | 77 | 90 |
